Laboratory results from patent publication US9200252B2, “Compositions for inducing differentiation into retinal cells from retinal progenitor cells or inducing proliferation of retinal cells comprising Wnt signaling pathway activators” (SNU R&DB Foundation, priority 2009, dated 2015).

Tested on: hESC-derived retinal progenitor cells
Experiment: Differentiation of hESC-derived retinal progenitor cells into photoreceptor cells with substitutes for Wnt3a or Shh; positive rates of retinal cell markers by immunochemical staining
Assay type: cell-based, human
Details: Mean ± S.E.M., sample size 3
Description: The eye field precursors (floating aggregates) were cultured in 8-well poly-D-lysine/laminin-coated slides (BD Biosciences, Bedford, Mass.) under the same conditions that were used for differentiation into the retinal progenitor cells, the neural retinal progenitor cells, the photoreceptor cell precursors and the photoreceptor cells.
After being blocked for 90 min, the slides in each differentiation step were incubated overnight at 4° C. with the following antibodies specific for cells of each differentiation step: rabbit-Blue-opsin (1:500, Chemicon), sheep-Chx10 (1:100, Chemicon), rabbit-Crx (1:200, Santa Cruz Biotechnology, Santa Cruz, Calif., USA), rabbit-GFAP (1:200, Invitrogen), mouse-human specific mitochondria (1:50, Chemicon), rabbit-human specific mitochondria (1:200, Chemicon), mouse-Islet1 (1:10, Developmental Studies Hydroma Bank, DSHB; Iowa City, Iowa, USA), mouse-Ki67 (1:100, Vector Laboratories, Peterborough, England), mouse-Mitf (1:1,000, abcam, Cambridge, Mass., USA), mouse-nestin (1:250, BD Sciences), rabbit-neurofilament-200 (1:1,000, Sigma-Aldrich), rabbit-Otx2 (1:100, abcam), rabbit-Pax2 (1:250, abcam), mouse-Pax6 (1:2, DSHB), mouse-peripherin2 (1:500, GenScript, Piscataway, N.J., USA), rabbit-Rax (1:250, abcam), rabbit-recoverin (1:1,000, Chemicon), retinal pigment epithelium 65 (RPE65, 1:100, Chemicon), rabbit-rhodopsin (1:500, Sigma-Aldrich), mouse-rhodopsin (1:500, Ret-P1, Lab Vision, Fremont, Calif., USA), mouse-rhodopsin (1:2,000, Ret-P1, Sigma-Aldrich), mouse-rom1 (1:50, ABR-Affinity Bioreagents, Golden, Colo., USA), rabbit-PDE6 beta (1:100, abcam), rabbit-phosducin (1:500, Santa Cruz Biotechnology), mouse-PKC-alpha (1:500, Sigma-Aldrich), mouse-Prox1 (1:2,000, Chemicon), mouse-Sox2 (1:250, R&D Systems), rabbit-synaptophysin (1:2,000, Santa Cruz Biotechnology), and rabbit-ZO-1 (1:100, Zymed-Invitrogen).
The cells cultured on the slides in each step were washed three times for 5 min with PBS and incubated at room temperature for 2 hrs with species-specific secondary antibody conjugated with Cy3 (1:800, Jackson Immunoresearch Laboratory) or Alexa488 (1:500, Invitrogen). A standard material suitable for the primary and the secondary antibody was used to examine non-specific staining or interaction between the antibodies. Afterwards, the cells were washed three times for 5 min with PBS, counterstained with DAPI (4,6-diamidino-2 phenylindole) and mounted in Vectashield (Vector Laboratories), followed by visualization under an epifluorescence microscope (Nikon Eclipse, E800, Tokyo, Japan) and a confocal microscope (Leica, Leica Microsystems Inc, Bannockburn, Ill., USA or Zeiss LSM510, Carl Zeiss, Inc, Thornwood, N.Y., USA).
500 cells were counted from 20 microscopic fields randomly selected at 200 magnification and evaluated for positive responses to each antibody. Positive responses to antibodies were determined after at least three evaluations. […] All data were represented as mean±standard error of the mean (S.E.M) with a statistical significance of p<0.05.

Molecule: O=C1Nc2cc(Br)ccc2/C1=C1/Nc2ccccc2/C1=N\O [BIO, 6-bromoindirubin-3′-oxime, reference compound]
- Positive rate of Crx (2 uM instead of Wnt3a): 65.8(±1.0) %
- Positive rate of Ki67 (2 uM instead of Wnt3a): 17.2(±0.6) %
- Positive rate of Pax6 (2 uM instead of Wnt3a): 92.8(±1.0) %
- Positive rate of Rom (2 uM instead of Wnt3a): 60.3(±0.9) %
- Positive rate of b-opsin (2 uM instead of Wnt3a): 77.5(±1.8) %
- Positive rate of peripherin2 (2 uM instead of Wnt3a): 33.9(±0.1) %
- Positive rate of recoverin (2 uM instead of Wnt3a): 77.1(±0.8) %
- Positive rate of rhodopsin (2 uM instead of Wnt3a): 71.5(±1.2) %

Molecule: [Cl-].[Li+] [LiCl, reference compound]
- Positive rate of recoverin (2.5 mM instead of Wnt3a): 64.1(±2.9) %
- Positive rate of rhodopsin (2.5 mM instead of Wnt3a): 56.2(±1.7) %
- Positive rate of Crx (5 mM instead of Wnt3a): 5.0(±1.7) %
- Positive rate of Ki67 (5 mM instead of Wnt3a): 33.3(±2.2) %
- Positive rate of peripherin2 (5 mM instead of Wnt3a): 1.5(±0.9) %
- Positive rate of recoverin (5 mM instead of Wnt3a): 78.9(±4.4) %
- Positive rate of rhodopsin (5 mM instead of Wnt3a): 68.5(±2.2) %

Molecule: O=C1NC(=O)C(c2ccccc2[N+](=O)[O-])=C1Nc1ccc(O)c(Cl)c1 [SB415286, reference compound]
- Positive rate of Crx (30 uM instead of Wnt3a): 53.7(±2.7) %
- Positive rate of Ki67 (30 uM instead of Wnt3a): 13.3(±1.2) %
- Positive rate of Pax6 (30 uM instead of Wnt3a): 89.1(±0.6) %
- Positive rate of Rom (30 uM instead of Wnt3a): 59.5(±0.7) %
- Positive rate of b-opsin (30 uM instead of Wnt3a): 53.7(±2.7) %
- Positive rate of peripherin2 (30 uM instead of Wnt3a): 9.1(±0.6) %
- Positive rate of recoverin (30 uM instead of Wnt3a): 70.0(±0.6) %
- Positive rate of rhodopsin (30 uM instead of Wnt3a): 69.3(±0.5) %

Molecule: c1ccc2c(Oc3nc(Nc4ccc(N5CCOCC5)cc4)c4ncn(C5CCCCC5)c4n3)cccc2c1 [purmorphamine, reference compound]
- Positive rate of Crx (1 uM instead of Shh): 71.6(±0.8) %
- Positive rate of Ki67 (1 uM instead of Shh): 24.3(±0.5) %
- Positive rate of peripherin2 (1 uM instead of Shh): 41.5(±1.2) %
- Positive rate of recoverin (1 uM instead of Shh): 76.5(±0.9) %
- Positive rate of rhodopsin (1 uM instead of Shh): 73.5(±1.2) %

Molecule: Norrin: recombinant Norrin (R&D Systems), activator of the Wnt pathway, binds to Frizzled4 receptor
- Positive rate of Crx (50 ng/ml instead of Wnt3a): 39.3(±0.8) %
- Positive rate of Ki67 (50 ng/ml instead of Wnt3a): 42.2(±6.8) %
- Positive rate of Rom (50 ng/ml instead of Wnt3a): 69.5(±2.7) %
- Positive rate of b-opsin (50 ng/ml instead of Wnt3a): 71.1(±0.6) %
- Positive rate of peripherin2 (50 ng/ml instead of Wnt3a): 24.9(±4.5) %
- Positive rate of recoverin (50 ng/ml instead of Wnt3a): 85.0(±7.2) %
- Positive rate of rhodopsin (50 ng/ml instead of Wnt3a): 82.9(±7.1) %

B1: Wnt5A: recombinant Wnt5A (R&D Systems), Wnt signaling pathway activator used instead of Wnt3a (protein, UniProt P41221 62-380, looked up)
Protein Wnt-5a: IIGAQPLCSQLAGLSQGQKKLCHLYQDHMQYIGEGAKTGIKECQYQFRHRRWNCSTVDNTSVFGRVMQIGSRETAFTYAVSAAGVVNAMSRACREGELSTCGCSRAARPKDLPRDWLWGGCGDNIDYGYRFAKEFVDARERERIHAKGSYESARILMNLHNNEAGRRTVYNLADVACKCHGVSGSCSLKTCWLQLADFRKVGDALKEKYDSAAAMRLNSRGKLVQVNSRFNSPTTQDLVYIDPSPDYCVRNESTGSLGTQGRLCNKTSEGMDGCELMCCGRGYDQFKTVQTERCHCKFHWCCYVKCKKCTEIVDQFVCK
- Positive rate of Crx (50 ng/ml instead of Wnt3a): 67.3(±1.9) %
- Positive rate of Ki67 (50 ng/ml instead of Wnt3a): 41.3(±3.9) %
- Positive rate of Rom (50 ng/ml instead of Wnt3a): 58.8(±2.7) %
- Positive rate of b-opsin (50 ng/ml instead of Wnt3a): 55.0(±4.4) %
- Positive rate of peripherin2 (50 ng/ml instead of Wnt3a): 20.7(±0.8) %
- Positive rate of recoverin (50 ng/ml instead of Wnt3a): 61.0(±3.2) %
- Positive rate of rhodopsin (50 ng/ml instead of Wnt3a): 59.5(±2.0) %
- Positive rate of peripherin2 (100 ng/ml instead of Wnt3a): 14.2(±2.8) %
- Positive rate of recoverin (100 ng/ml instead of Wnt3a): 61.6(±2.5) %
- Positive rate of rhodopsin (100 ng/ml instead of Wnt3a): 56.1(±1.8) %

B2: Wnt1: recombinant Wnt1 (PeproTech), Wnt signaling pathway activator used instead of Wnt3a (protein, UniProt P04628 28-370, looked up)
Proto-oncogene Wnt-1: ANSSGRWWGIVNVASSTNLLTDSKSLQLVLEPSLQLLSRKQRRLIRQNPGILHSVSGGLQSAVRECKWQFRNRRWNCPTAPGPHLFGKIVNRGCRETAFIFAITSAGVTHSVARSCSEGSIESCTCDYRRRGPGGPDWHWGGCSDNIDFGRLFGREFVDSGEKGRDLRFLMNLHNNEAGRTTVFSEMRQECKCHGMSGSCTVRTCWMRLPTLRAVGDVLRDRFDGASRVLYGNRGSNRASRAELLRLEPEDPAHKPPSPHDLVYFEKSPNFCTYSGRLGTAGTAGRACNSSSPALDGCELLCCGRGHRTRTQRVTERCNCTFHWCCHVSCRNCTHTRVLHECL
- Positive rate of Crx (50 ng/ml instead of Wnt3a): 60.3(±1.3) %
- Positive rate of Ki67 (50 ng/ml instead of Wnt3a): 23.8(±1.2) %
- Positive rate of Rom (50 ng/ml instead of Wnt3a): 55.9(±2.9) %
- Positive rate of b-opsin (50 ng/ml instead of Wnt3a): 61.6(±6.8) %
- Positive rate of peripherin2 (50 ng/ml instead of Wnt3a): 3.8(±2.0) %
- Positive rate of recoverin (50 ng/ml instead of Wnt3a): 70.9(±1.8) %
- Positive rate of rhodopsin (50 ng/ml instead of Wnt3a): 66.2(±5.4) %

B3: Wnt11: recombinant Wnt11 (R&D Systems), Wnt signaling pathway activator used instead of Wnt3a (protein, UniProt O96014 25-354, looked up)
Protein Wnt-11: IKWLALSKTPSALALNQTQHCKQLEGLVSAQVQLCRSNLELMHTVVHAAREVMKACRRAFADMRWNCSSIELAPNYLLDLERGTRESAFVYALSAAAISHAIARACTSGDLPGCSCGPVPGEPPGPGNRWGGCADNLSYGLLMGAKFSDAPMKVKKTGSQANKLMRLHNSEVGRQALRASLEMKCKCHGVSGSCSIRTCWKGLQELQDVAADLKTRYLSATKVVHRPMGTRKHLVPKDLDIRPVKDSELVYLQSSPDFCMKNEKVGSHGTQDRQCNKTSNGSDSCDLMCCGRGYNPYTDRVVERCHCKYHWCCYVTCRRCERTVERYVCK
- Positive rate of Crx (50 ng/ml instead of Wnt3a): 65.9(±5.8) %
- Positive rate of Ki67 (50 ng/ml instead of Wnt3a): 40.1(±5.2) %
- Positive rate of Rom (50 ng/ml instead of Wnt3a): 50.2(±7.4) %
- Positive rate of b-opsin (50 ng/ml instead of Wnt3a): 30.6(±6.2) %
- Positive rate of peripherin2 (50 ng/ml instead of Wnt3a): 0.5(±0.3) %
- Positive rate of recoverin (50 ng/ml instead of Wnt3a): 65.3(±2.7) %
- Positive rate of rhodopsin (50 ng/ml instead of Wnt3a): 51.8(±7.7) %
- Positive rate of peripherin2 (100 ng/ml instead of Wnt3a): 10.7(±2.9) %
- Positive rate of recoverin (100 ng/ml instead of Wnt3a): 61.8(±4.1) %
- Positive rate of rhodopsin (100 ng/ml instead of Wnt3a): 59.1(±5.4) %
